According to patent publication EP4667464A1 (Cyrus Therapeutics Inc., priority 2023, dated 2024):
pIC50: −log10 of the molar value.

The molecules below were run against T1, SOS1 (Homo sapiens, UniProt Q07889) (assay: SOS-catalyzed nucleotide exchange assay (HTRF, SOS1-mediated GTP loading of KRAS G12D)). Conditions: GST-KRAS G12D, HIS-SOS1cat, compound 128 pM to 10 µM; read-out: SOS-catalyzed nucleotide exchange assay.
T1 construct: HIS-SOS1cat (160 nM; Cytoskeleton, US); His (N); purchased Cytoskeleton
T1 sequence (Q07889 564-1049 limits assumed): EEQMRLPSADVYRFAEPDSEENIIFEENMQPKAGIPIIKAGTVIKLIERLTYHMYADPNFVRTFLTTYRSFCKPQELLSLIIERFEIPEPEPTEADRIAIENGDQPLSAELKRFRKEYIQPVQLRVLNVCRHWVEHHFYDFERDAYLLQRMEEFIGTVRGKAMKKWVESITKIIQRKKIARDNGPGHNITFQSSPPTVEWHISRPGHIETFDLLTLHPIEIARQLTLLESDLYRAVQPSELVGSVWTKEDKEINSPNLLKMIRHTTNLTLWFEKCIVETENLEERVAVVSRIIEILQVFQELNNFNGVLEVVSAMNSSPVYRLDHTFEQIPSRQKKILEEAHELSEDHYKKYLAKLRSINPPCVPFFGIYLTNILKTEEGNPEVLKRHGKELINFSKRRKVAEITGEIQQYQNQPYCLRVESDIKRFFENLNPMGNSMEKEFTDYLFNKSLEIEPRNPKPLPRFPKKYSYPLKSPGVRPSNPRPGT
Type: biochemical
Description: SOS1 activity was measured by SOS1-mediated GTP loading quantification of KRAS^G12D. GTP loaded KRAS^G12D was detected by HTRF (Homogeneous Time Resolved Fluorescence) using anti-GST terbium (Cisbio, France) as a donor and a fluorescence GTP analogue (EDA-GTP-DY-647P1, [DY-647P1 labeled 2'/3'-O-(2-aminoethyl-carbamoyl)guanosine-5'-triphosphate (Jena bioscience, Germany)]) as an acceptor.
KRAS^G12D working solution was prepared by adding equal amounts of GST-KRAS^G12D (100 nM) and anti-GST-terbium (2 nM; Cisbio, France) to the assay buffer and culturing on ice for 10 minutes. […] Control solution was prepared by adding equal volumes of EDA-GTP-DY-647P1 and the assay buffer for normalization control to exclude GEF-independent GTP loading and background signals.
10 uL of the KRAS^G12D solution was added to each well and incubated for 30 minutes at room temperature while shaking. HTRF was measured using a Thermo Varioskan (excitation 334 nm, emission 665 nm). The IC50 of each inhibitor was analyzed using Graphad Prism.
With `C[C@@H](NC(=O)c1ccc(=O)n(-c2cncc(-c3cnnn3C3CNC3)c2)n1)c1cccc(C(F)(F)F)c1F` [Example 19] the pIC50 was > 7.30. For `CCn1nncc1-c1cncc(-n2nc(C(=O)N[C@H](C)c3cccc(C(F)(F)CO)c3F)cc(C)c2=O)c1` [Example 1-13, N-[(1R)-1-[3-(1,1-difluoro-2-hydroxy-ethyl)-2-fluoro-phenyl]ethyl]-1-[5-(3-ethyltriazol-4-yl)-3-pyridyl]-5-methyl-6-oxo-pyridazine-3-carboxamide], the pIC50 was > 7.30. In the case of `C[C@@H](NC(=O)c1cc(C(F)(F)F)c(=O)n(-c2cncc(-c3cnnn3C)c2)n1)c1cccc(C(F)(F)CO)c1F` [Example 1-72, (R)-N-(1-(3-(1,1-difluoro-2-hydroxyethyl)-2-fluorophenyl)ethyl)-1-(5-(1-methyl-1H-1,2,3-triazol-5-yl)pyridin-3-yl)-6-oxo-5-(trifluoromethyl)-1,6-dihydropyridazine-3-carboxamide], the pIC50 was > 7.30. In the case of `C[C@@H](NC(=O)c1ccc(=O)n(-c2cncc(-c3cnnn3C3COC3)c2)n1)c1cccc(C(F)(F)CO)c1F` [Example 1-70, (R)-N-(1-(3-(1,1-difluoro-2-hydroxyethyl)-2-fluorophenyl)ethyl)-1-(5-(1-(oxetan-3-yl)-1H-1,2,3-triazol-5-yl)pyridin-3-yl)-6-oxo-1,6-dihydropyridazine-3-carboxamide], the pIC50 was > 7.30. `[2H]C([2H])(O)C(F)(F)c1cccc([C@@H](C)NC(=O)c2ccc(=O)n(-c3cncc(-c4cnnn4C4COC4)c3)n2)c1F` [Example 1-71, (R)-N-(1-(3-(1,1-difluoro-2-hydroxyethyl-2,2-dideuterio)-2-fluorophenyl)ethyl)-1-(5-(1-(oxetan-3-yl)-1H-1,2,3-triazol-5-yl)pyridin-3-yl)-6-oxo-1,6-dihydropyridazine-3-carboxamide] was tested, and the pIC50 was > 7.30.

Each molecule was assayed against T2, KRAS G12C::SOS1 (Homo sapiens, UniProt Q07889) (assay: KRAS G12C::SOS1 protein-protein interaction (PPI) inhibition assay (HTRF)). Conditions: not given.
T2 construct: purchased CISBIO 64KRASG12PEH
T2 sequence (Q07889 1-1333): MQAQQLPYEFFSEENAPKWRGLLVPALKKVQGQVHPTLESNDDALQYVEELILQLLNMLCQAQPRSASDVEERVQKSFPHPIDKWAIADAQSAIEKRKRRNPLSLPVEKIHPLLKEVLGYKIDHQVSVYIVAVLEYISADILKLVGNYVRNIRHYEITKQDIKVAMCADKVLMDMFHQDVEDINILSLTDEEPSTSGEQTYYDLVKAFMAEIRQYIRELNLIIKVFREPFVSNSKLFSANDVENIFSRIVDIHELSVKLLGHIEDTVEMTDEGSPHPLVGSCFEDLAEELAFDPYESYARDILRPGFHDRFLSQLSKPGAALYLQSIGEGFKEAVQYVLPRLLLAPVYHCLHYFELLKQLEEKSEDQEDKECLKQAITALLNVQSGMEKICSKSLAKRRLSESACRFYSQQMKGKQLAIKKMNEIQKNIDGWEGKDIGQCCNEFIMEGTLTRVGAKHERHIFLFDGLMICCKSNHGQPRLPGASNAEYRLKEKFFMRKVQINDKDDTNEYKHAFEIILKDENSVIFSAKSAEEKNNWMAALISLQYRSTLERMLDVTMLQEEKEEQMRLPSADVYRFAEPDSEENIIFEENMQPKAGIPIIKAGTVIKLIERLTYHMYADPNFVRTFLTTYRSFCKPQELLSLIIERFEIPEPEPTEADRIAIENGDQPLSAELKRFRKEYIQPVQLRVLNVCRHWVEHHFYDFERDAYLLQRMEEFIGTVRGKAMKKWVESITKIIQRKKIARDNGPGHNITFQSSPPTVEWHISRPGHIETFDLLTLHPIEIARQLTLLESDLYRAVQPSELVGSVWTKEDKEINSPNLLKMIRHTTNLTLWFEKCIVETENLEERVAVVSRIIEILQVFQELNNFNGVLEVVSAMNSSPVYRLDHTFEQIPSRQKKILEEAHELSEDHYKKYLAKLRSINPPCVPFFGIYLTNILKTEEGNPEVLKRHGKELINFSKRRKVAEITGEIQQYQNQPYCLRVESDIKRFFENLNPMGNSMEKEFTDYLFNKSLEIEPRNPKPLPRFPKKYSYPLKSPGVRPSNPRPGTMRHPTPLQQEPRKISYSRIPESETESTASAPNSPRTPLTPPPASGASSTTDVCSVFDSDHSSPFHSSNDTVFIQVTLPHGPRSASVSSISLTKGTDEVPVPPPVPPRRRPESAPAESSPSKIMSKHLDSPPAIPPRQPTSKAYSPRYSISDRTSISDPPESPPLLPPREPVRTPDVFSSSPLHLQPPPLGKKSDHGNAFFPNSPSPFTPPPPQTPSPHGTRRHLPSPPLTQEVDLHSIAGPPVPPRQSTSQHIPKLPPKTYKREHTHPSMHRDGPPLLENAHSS
Type: binding
Description: Protein-protein interaction between SOS1 and KRAS^G12c was detected using KRAS G12C/SOS1 binding kit from CISBIO (64KRASG12PEH, CISBIO, FRANCE) according to the manufacturer's assay method. Briefly, the maximum concentration of an inhibitor sample was set to be 3 µM, and the inhibitor sample was diluted 7 times by 1/3, and samples having a total of 8 concentrations were prepared. In HTRF (Homogeneous Time-Resolved Fluorescence) exclusive 96-well low-volume white plate (66PL96005, CISBIO, FRANCE), 2 µL of an inhibitor sample prepared for each concentration, 5 µL of a mixed solution of Tag1 labeled KRAS^G12c protein and GTP diluted with the dilution solution provided by the manufacturer, and 5 µL of Tag2 labeled SOS1 protein were mixed, and added with 8 µL of a diluted solution where anti-Tag1 KRAS^G12C XL665 (HTRF acceptor) labeled antibody and anti-Tag2 SOS1 Terbium cryptate (HTRF donor) labeled antibody were mixed in an equal ratio and cultured at room temperature for 2 h.
With `COCC1(c2cccc([C@@H](C)NC(=O)c3ccc(=O)n(-c4cncc(-c5cnnn5C)c4)n3)c2F)CC1` [Example 18, N-[(1R)-1-[2-fluoro-3-[1-(methoxymethyl)cyclopropyl]phenyl]ethyl]-1-[5-(3-methyltriazol-4-yl)-3-pyridyl]-6-oxo-pyridazine-3-carboxamide] the pIC50 was < 6.82.

Same assay, conditions: 8 concentrations from 3 µM, three replicates; read-out: KRAS G12C::SOS1 PPI
In the case of `C[C@@H](NC(=O)c1ccc(=O)n(-c2cncc(-c3cnnn3C3CNC3)c2)n1)c1cccc(C(F)(F)F)c1F` [Example 19], the pIC50 was > 7.30. With `CCn1nncc1-c1cncc(-n2nc(C(=O)N[C@H](C)c3cccc(C(F)(F)CO)c3F)cc(C)c2=O)c1` [Example 1-13, N-[(1R)-1-[3-(1,1-difluoro-2-hydroxy-ethyl)-2-fluoro-phenyl]ethyl]-1-[5-(3-ethyltriazol-4-yl)-3-pyridyl]-5-methyl-6-oxo-pyridazine-3-carboxamide] the pIC50 was > 7.30. `Cc1ncc(-n2nc(C(=O)N[C@H](C)c3cccc(C(F)(F)CO)c3C)ccc2=O)cc1-c1cnnn1C` [Example 1-28, N-[(1R)-1-[3-(1,1-difluoro-2-hydroxy-ethyl)-2-methyl-phenyl]ethyl]-1-[6-methyl-5-(3-methyltriazol-4-yl)-3-pyridyl]-6-oxo-pyridazine-3-carboxamide] was tested, and the pIC50 was < 6.82. In the case of `C[C@@H](NC(=O)c1ccc(=O)n(-c2cnc(N(C)C)c(-c3cnnn3C)c2)n1)c1cccc(C(F)(F)F)c1F` [Example 6-6, N-{(R)-1-[2-fluoro-3-(trifluoromethyl)phenyl]ethyl}-1-[6-(dimethylamino)-5-(1-methyl-1H-1,2,3-triazol-5-yl)-3-pyridyl]-6-oxo-1,6-dihydropyridazine-3-carboxamide], the pIC50 was 6.82 to 7.30. In the case of `C[C@@H](NC(=O)c1ccc(=O)n(-c2cncc(-c3cnnn3C)c2)n1)c1cccc(C2(CF)CC2)c1F` (single isomer, unassigned) [Example 16], the pIC50 was < 6.82. With `COc1ncc(-n2nc(C(=O)N[C@H](C)c3cccc(C(F)(F)F)c3F)ccc2=O)cc1-c1cnnn1C` [Example 6-5, N-{(R)-1-[2-fluoro-3-(trifluoromethyl)phenyl]ethyl}-1-[6-methoxy-5-(1-methyl-1H-1,2,3-triazol-5-yl)-3-pyridyl]-6-oxo-1,6-dihydropyridazine-3-carboxamide] the pIC50 was 6.82 to 7.30. With `Cc1ncc(-n2nc(C(=O)N[C@H](C)c3cccc(C(F)F)c3F)ccc2=O)cc1-c1cnnn1C` [Example 1-47, N-{(R)-1-[3-(difluoromethyl)-2-fluorophenyl]ethyl}-1-[6-methyl-5-(1-methyl-1H-1,2,3-triazol-5-yl)-3-pyridyl]-6-oxo-1,6-dihydropyridazine-3-carboxamide] the pIC50 was < 6.82. `C[C@@H](NC(=O)c1cc(N[C@H](C)c2cccc(C(F)(F)F)c2F)c(=O)n(-c2cncc(-c3cnnn3C)c2)n1)c1cccc(C(F)(F)F)c1F` [Example 1-44, N-{(R)-1-[2-fluoro-3-(trifluoromethyl)phenyl]ethyl}-5-{(R)-1-[2-fluoro-3-(trifluoromethyl)phenyl]ethylamino}-1-[5-(1-methyl-1H-1,2,3-triazol-5-yl)-3-pyridyl]-6-oxo-1,6-dihydropyridazine-3-carboxamide] was tested, and the pIC50 was < 6.82. Molecule `C[C@@H](NC(=O)c1ccc(=O)n(-c2cncc(-c3cnnn3C)c2)n1)c1cccc(C(F)(F)F)c1Cl` [Example 1-31, N-[(1R)-1-[2-chloro-3-(trifluoromethyl)phenyl]ethyl]-1-[5-(3-methyltriazol-4-yl)-3-pyridyl]-6-oxo-pyridazine-3-carboxamide] has a pIC50 of 6.82 to 7.30. For `C[C@@H](NC(=O)c1ccc(=O)n(-c2cncc(-c3cnnn3C)c2)n1)c1cccc(C2=CCC2)c1F` (single isomer, unassigned) [Example 17], the pIC50 was < 6.82. Work on `CNc1ncc(-n2nc(C(=O)N[C@H](C)c3cccc(C(F)(F)F)c3F)ccc2=O)cc1-c1cnnn1C` [Example 1-45, N-{(R)-1-[2-fluoro-3-(trifluoromethyl)phenyl]ethyl}-1-[6-(methylamino)-5-(1-methyl-1H-1,2,3-triazol-5-yl)-3-pyridyl]-6-oxo-1,6-dihydropyridazine-3-carboxamide] yielded a pIC50 of 6.82 to 7.30.

Same assay, conditions: read-out: KRAS G12C::SOS1 PPI; 8 concentrations from 3 µM, three replicates
With `C[C@@H](NC(=O)c1ccc(=O)n(-c2cncc(-c3cnnn3C)c2)n1)c1cccc(C2(CO)CC2)c1F` [Example 1-32, N-[(1R)-1-[2-fluoro-3-[1-(hydroxymethyl)cyclopropyl]phenyl]ethyl]-1-[5-(3-methyltriazol-4-yl)-3-pyridyl]-6-oxo-pyridazine-3-carboxamide] the pIC50 was < 6.82.
